# Data reported in PubChem BioAssay AID1552 (Sanford-Burnham Center for Chemical Genomics, 2009).
# The source made the active and inactive calls. The rule behind the calls is not given here.
# Biological target: Ubiquitin-conjugating enzyme E2 N (Homo sapiens) (UniProt P61088)
# Experiment: UBE2N binders by NMR, biophysical, purified protein (AID 1552)
# Conditions: NMR binding to purified UBE2N
# Ubiquitin-conjugating enzyme E2 N (Homo sapiens), sequence (P61088 whole entry, looked up): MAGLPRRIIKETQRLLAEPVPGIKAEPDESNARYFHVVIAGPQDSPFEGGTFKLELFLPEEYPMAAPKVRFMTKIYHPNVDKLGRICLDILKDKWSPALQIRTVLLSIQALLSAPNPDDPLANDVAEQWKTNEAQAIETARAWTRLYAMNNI
row,Compound,Kd
1,O=C(O)CCC(=O)c1cccc2ccccc12,> 4 mM (inactive)
2,COc1ncccc1N,> 4 mM (inactive)
3,CN(C)N1C(=O)C2C3C=CC(O3)C2C1=O (stereo unspecified),> 4 mM (inactive)
4,CCn1cnc(C(=O)NC)c1C(=O)NC,> 4 mM (inactive)
5,Cc1ccc2cccc(OC(=O)N3CCCC3)c2n1,> 4 mM (inactive)
6,Cc1nnc(NCc2ccc3c(c2)OCO3)[nH]c1=O,> 4 mM (inactive)
7,CCc1ccc2oc(-c3cc(N)cc(C)c3O)nc2c1,> 4 mM (inactive)
8,Nc1cccc2c(=O)[nH][nH]c(=O)c12,> 4 mM (inactive)
9,CC(C)(C)NC(=O)N1CCC(C(N)=O)CC1,> 4 mM (inactive)
10,O=c1cnnc(NCc2ccc(F)cc2)[nH]1,> 4 mM (inactive)
11,Cc1cc(C)n(-c2nc(C)nc(N)n2)n1,> 4 mM (inactive)
12,O=C(Nc1nccs1)c1cccnc1,> 4 mM (inactive)
13,OCCN1CCN(C(=S)c2ccc(Cl)cc2)CC1,> 4 mM (inactive)
14,COc1cccc(-c2cc(=O)c3cc(OC)ccc3o2)c1,> 4 mM (inactive)
15,CC(=O)C1CC[C@H]2C3CC[C@H]4C[C@H](O)CC[C@]4(C)C3CC[C@]12C (stereo partly specified),> 4 mM (inactive)
16,COc1ccc(N=C2NC(=O)CS2)cc1,> 4 mM (inactive)
17,CC1(C)C[C@@H]2C(=O)CC[C@H]3O[C@]3(C)CC[C@H]21,> 4 mM (inactive)
18,CC(=O)Oc1ccc(/C=C/c2cc(OC(C)=O)cc(OC(C)=O)c2)cc1,> 4 mM (inactive)
19,CC(=O)NC12CC3CC(CC(O)(C3)C1)C2,> 4 mM (inactive)
20,NCc1oc(-c2ccccc2)cc1C(=O)O,> 4 mM (inactive)
21,CC(C)(C)CC(=O)NNC(=O)c1cnccn1,> 4 mM (inactive)

row,Compound,Kd
1,COc1ccc2c(=O)c(CC(=O)O)coc2c1,> 4 mM (inactive)
2,CCOC(=O)c1nc2ccccc2c(=O)n1N,> 4 mM (inactive)
3,C[C@@H]1[C@H]2[C@H](O[C@@H]3O[C@H](CO)[C@@H](O)[C@H](O)[C@H]3O)OC=C(C(=O)O)[C@H]2C[C@@H]1O,> 4 mM (inactive)
4,Cc1[nH]c2ccccc2c1C(=O)CSc1ncn[nH]1,> 4 mM (inactive)
5,O=C1C2CCCCC2C(=O)N1Cc1cccnc1 (stereo unspecified),> 4 mM (inactive)
6,O=c1[nH]c(O)c(C=NCc2cccs2)c(=O)[nH]1,> 4 mM (inactive)
7,CC1CCN(C(=S)c2ccccc2O)CC1,> 4 mM (inactive)
8,COc1ccc2c(c1)[n+](=O)c(C(C)=O)c(C)n2[O-],> 4 mM (inactive)
9,CC(=O)c1sc2nc(N)nn2c1C,> 4 mM (inactive)
10,CC1=NN(c2ccc(C)cc2)C(=O)C1,> 4 mM (inactive)
11,COc1cccc(NC(=O)c2ncn[nH]2)c1,> 4 mM (inactive)
12,Nc1nc2[nH]c(=O)c(=O)[nH]c2c(=O)[nH]1,> 4 mM (inactive)
13,O=C(CCc1ccc(O)cc1)c1c(O)cc(O)cc1O[C@@H]1O[C@H](CO)[C@@H](O)[C@H](O)[C@H]1O,> 4 mM (inactive)
14,NCc1ccc(S(=O)(=O)O)cc1,> 4 mM (inactive)
15,NC(=O)Cn1nc(-c2ccco2)ccc1=O,> 4 mM (inactive)
16,Cc1cc2c(N)cccc2nn1,> 4 mM (inactive)
17,CC(=O)Oc1cccc2ccc(=O)[nH]c12,> 4 mM (inactive)
18,Cc1cc(=O)[nH]c2ccccc12,> 4 mM (inactive)
19,CCCNC(CC(=O)Nc1cccnc1)C(=O)O (stereo unspecified),> 4 mM (inactive)
20,Cn1[nH]c2nc3[nH]n(C)c(=O)c3c(-c3ccccc3)c2c1=O,> 4 mM (inactive)
21,CC(=O)OC[C@@]1(O)C[C@@]23CCC4c5ccoc5CC[C@]4(C)C2CC[C@@H]1C3 (stereo partly specified),> 4 mM (inactive)

row,Compound,Kd
1,Cc1[nH]c2ccccc2c1C=Nn1cncn1,> 4 mM (inactive)
2,N=c1c2c3c(sc2ncn1N)CCCC3,> 4 mM (inactive)
3,CCOC(=O)C1CN(C)CCN1C (stereo unspecified),> 4 mM (inactive)
4,Cn1c(=O)[nH]c2nc[nH]c2c1=O,> 4 mM (inactive)
5,Cc1nc2sc3c(c2c(=N)n1N)CC(C)(C)OC3,> 4 mM (inactive)
6,Cc1cc(=O)cc(C)n1-c1ccccc1N,> 4 mM (inactive)
7,COc1nc(C)ccc1-c1noc(-c2ccco2)n1,> 4 mM (inactive)
8,c1ccc2c(c1)ncn2CCn1cnc2ccccc21,> 4 mM (inactive)
9,COCCOc1nc2ccccc2nc1C,> 4 mM (inactive)
10,CC1(C)C=Cc2cc3ccc(=O)oc3cc2O1,> 4 mM (inactive)
11,O=S(=O)(Nc1cccc2cn[nH]c12)c1ccc(F)cc1,> 4 mM (inactive)
12,Nc1ncnc(Nc2ccccc2C(F)(F)F)n1,> 4 mM (inactive)
13,O=C(O)c1ccc(-n2cccn2)cc1,> 4 mM (inactive)
14,Cc1noc(C)c1C(=O)NCc1cccs1,> 4 mM (inactive)
15,NCc1ccccc1N1CCCCC1,> 4 mM (inactive)
16,CSc1nc(-c2ccco2)nn1S(C)(=O)=O,> 4 mM (inactive)
17,Cc1cc(NC(=O)c2cccc(S(C)(=O)=O)c2)no1,> 4 mM (inactive)
18,O=C(Nc1nc2ccccc2s1)c1ccc(=O)[nH]n1,> 4 mM (inactive)
19,Cn1nnc2cc(C(=O)O)ccc21,> 4 mM (inactive)
20,COc1cc([C@H]2Oc3cc([C@H]4Oc5cc(O)cc(O)c5C(=O)[C@@H]4O)ccc3O[C@@H]2CO)ccc1O,> 4 mM (inactive)
21,O=C(O)CCCNC(=O)c1ccccc1C(=O)O,> 4 mM (inactive)

row,Compound,Kd
1,O=C(NC1=NCCS1)c1ccc(Cl)s1,> 4 mM (inactive)
2,CC(=O)Nc1nnc(-c2ccco2)o1,> 4 mM (inactive)
3,Nc1ccc2[nH]ncc2c1,> 4 mM (inactive)
4,O=C(O)C1CCN(S(=O)(=O)c2cccs2)CC1,> 4 mM (inactive)
5,NS(=O)(=O)c1ccc(NC(=S)NC2CC2)cc1,> 4 mM (inactive)
6,CC1(C)Cc2cccc(CO)c2O1,> 4 mM (inactive)
7,Nc1ccc(N2CCOCC2)c(Cl)c1,> 4 mM (inactive)
8,Nc1ncnc(Cl)c1[N+](=O)[O-],> 4 mM (inactive)
9,Nc1ccc2c(c1)COc1ccccc1O2,> 4 mM (inactive)
10,O=C(c1cccs1)N1CCCc2ccccc21,> 4 mM (inactive)
11,COC(=O)Cc1cccc(OC)c1,> 4 mM (inactive)
12,CC1(C)C(=O)C=C[C@@]2(C)C1C[C@@H](O)[C@]1(C)C2CC[C@@]2(C)[C@H](c3ccoc3)OC(=O)[C@H]3O[C@]321 (stereo partly specified),> 4 mM (inactive)
13,NC(=O)CSc1ccc2nnc(-c3cccs3)n2n1,> 4 mM (inactive)
14,Cn1c(=O)c2[nH]c(Nc3ccccc3)nc2n(C)c1=O,> 4 mM (inactive)
15,CS(=O)(=O)c1ccc2nc(N)sc2c1,> 4 mM (inactive)
16,C[C@@H]1OC(O[C@H]2[C@H](OC(=O)[C@]34CCC(C)(C)CC3C3=CCC5[C@@]6(C)CC[C@H](OC7O[C@@H](C)[C@H](O[C@@H]8OC[C@@H](O)[C@H](O)[C@H]8O)[C@@H](O)[C@H]7O)C(C)(C)C6CC[C@@]5(C)[C@]3(C)CC4O)OC[C@H](O)[C@H]2O)[C@H](O)[C@H](O)[C@H]1O[C@@H]1O[C@H](CO)[C@@H](O)[C@H](O)[C@H]1O (stereo partly specified),> 4 mM (inactive)
17,O=C(Nn1cnnc1)c1ccccc1Cl,> 4 mM (inactive)
18,O=C1c2ccccc2C(=O)N1CCc1ccccn1,> 4 mM (inactive)
